Columns and labels:
Assay type in all cases: cell-based
[1] = tested on: Alternaria alternata mixed with Trichoderma viride (AaTv); assay: Fungal efficacy testing, modified ASTM 5590, paint film (Flumetsulam study); details: four weeks; for % inhibition: at the total conc given; for Total conc, ppm: concentration in paint chosen as minimum inhibitory concentration for SI, 30 C
Description: (§1) Sample preparation: A single or blend of biocides was post added into white acrylic latex paint free of biocides to give a maximum total active ingredient/s concentration tested. This paint was then diluted with a biocide free acrylic latex paint to give targeted concentrations for the testing. Depending on the type of biocide blends tested, the total biocides concentrations varies from 200 to 5000 ppm. After biocides addition or dilution, each sample was hand mixed for at least a minute until uniformity is achieved. Each of the paint samples as well as a control sample (containing no biocide) were used to prepare films on black plastic-vinyl chloride/acetate copolymer panels (LENETA, Mahwah, N.J.) using a 3 mil (0.0762 mm) bird bar applicator. The panels were thoroughly dried for at least 2 days avoiding direct exposure to sunlight. Square discs (0.5 inch; 1.27 cm^2) were cut out from each panel and were used as the substrate for fungal and algal efficacy tests. This sample size allowed for an agar border when the sample disc was placed into the well of the test plate. Each sample was tested in duplicate
(§2) Test conditions: The appropriate media (BOLD'S 3N for Chlorophytes, BG-11 for Cyanobacteria, and PDA for fungi) were used to support microbial growth. The test plates were maintained at room temp (25° C.-26° C.), in a cycled light-dark environment, for four weeks for algae. Plates for fungal challenge tests were maintained at 30 C for four weeks. At the end of the incubation period the samples were scored for percent area covered by visible microbial growth.
(§3) ASTM 5590 is a standard accelerated test method for determining resistance of various coatings (including paints) to fungal defacement. To accommodate for high-throughput screening, this method was scaled down from petri plates to 6-well plates. To set up the test, an agar plug was placed at the bottom of each well of the sterile 6-well plate. A single coupon was placed with a pair of sterile forceps at the center of the agar plug (on top) with the painted surface facing upwards. Fungal inoculums were prepared by mixing equal concentrations (1×10^6 cfu/ml) and equal volumes (depending on number of samples to be tested) of like growing organisms. For Flumetsulam+various IT synergy study, three pools of mixed fungi were prepared as the test inoculum. Cladosporium herbarum was mixed with Aureobasidium pullulans; Aspergillus niger was mixed with Penicillium funiculosum and Alternaria alternata was mixed with Trichoderma viride. For Diclosulam+various IT synergy study, all above fungi were mixed as a single pool. Each well was inoculated with 400 μl of organism mixture (1×10^6 cfu/ml) making sure that the whole surface (paint film as well as the agar surrounding it) was evenly covered. The plates were incubated at 30° C. in presence of moisture, for a period of four weeks. The total percent area covered was evaluated and recorded at the end of each week after the 2nd week and recorded in increments of 5%.
(§4) The SI is calculated based on […].

[2] = tested on: Aspergillus niger mixed with Penicillium funiculosum (AnPf); assay: as above; details: four weeks; for % inhibition: at the total conc given; for Total conc, ppm: concentration in paint chosen as minimum inhibitory concentration for SI, 30 C
Description: as §1, §2, §3, §4

[3] = tested on: Cladosporium herbarum mixed with Aureobasidium pullulans (ApCh); assay: as above; details: four weeks; for % inhibition: at the total conc given; for Total conc, ppm: concentration in paint chosen as minimum inhibitory concentration for SI, 30 C
Description: as §1, §2, §3, §4

[4] = tested on: Chlorella sp., Chlorella kessleri, and Nostoc commune (Cs + Ck + Nc); assay: Algal efficacy testing, modified ASTM 5589, paint film (Flumetsulam study); details: four weeks; for % inhibition: at the total conc given; for Total conc, ppm: concentration in paint chosen as minimum inhibitory concentration for SI, 25-26 C
Description: as §1, §2
(§5) ASTM 5589 is a standard accelerated test method for determining resistance of various coatings (including paints) to algal defacement. To accommodate for high-throughput screening, this method was scaled down from petri plates to 6-well plates. A single coupon was placed with a pair of sterile forceps at the center of the agar plug (on top) with the painted surface facing upwards. Algal inoculums were prepared by mixing equal concentrations (1×10^6 cfu/ml) and equal volumes (depending on number of samples to be inoculated) of like growing organisms.
(§6) In Flumetsulam+various IT synergy study, three pool of mixed algae were prepared as the test inoculum, Gloeocapsa sp. and Oscillatoria sp. a mix of cyanobacteria grown on BG-11 media; Chlorella sp., Chlorella kessleri, and Nostoc commune are unicellular chlorphytes that were mixed and grown on Bold media; Trentepohlia aurea, Tretepohlia odorata, and Calotrix parientina are filamentous algae that were mixed and grown on Bold media.
(§7) Each well that contains a tested coupon was inoculated with 400 μl of organism mixture (1×10^6 cfu/ml) making sure that the whole surface (paint film as well as the agar surrounding it) was evenly covered. The plates were incubated at room temp (25° C.-26° C.) with cyclic exposure to light (OTT-Lite model # OTL4012P, 40 Watt, 26KLumen) and dark phases, for a period of four weeks. The total area covered was evaluated at the end of each week according to percent area covered in 5% increments.
as §4

[5] = tested on: Trentepohlia aurea, Tretepohlia odorata, and Calotrix parientina (Cp + To + Ta); assay: as above; details: four weeks; for % inhibition: at the total conc given; for Total conc, ppm: concentration in paint chosen as minimum inhibitory concentration for SI, 25-26 C
Description: as §1, §2, §5, §6, §7, §4

[6] = tested on: Gloeocapsa sp. and Oscillatoria sp. (Gs + Os); assay: Algal efficacy testing, modified ASTM 5589, paint film (both studies); details: four weeks; for % inhibition: at the total conc given; for Total conc, ppm: concentration in paint chosen as minimum inhibitory concentration for SI
Description: as §1, §2, §5, §6
(§8) In Diclosulam+various IT synergy study, only two pools of mixed algae were prepared; Gloeocapsa sp. and Oscillatoria sp. grown on BG-11 media and Chlorella sp., Chlorella kessleri, Nostoc commune, Trentepohlia aurea, Tretepohlia odorata, and Calotrix parientina grown on Bold media
as §7, §4

[7] = tested on: Aa + Tv + An + Pf + Ap + Ch (all fungi mixed as a single pool); assay: Fungal efficacy testing, modified ASTM 5590, paint film (Diclosulam study, single pool); details: four weeks; for Total conc, ppm: Diclosulam:DIMTS study, concentration in paint used for SI, 30 C; for % inhibition: at the total conc given
Description: as §1, §2
as §3, with “Each well was inoculated with 400 μl of organism mixture (1×10^6 cfu/ml) making sure that the whole surface (paint film as well as the agar surrounding it) was evenly covered. The plates were incubated at 30° C. in presence of moisture, for a period of four weeks.” left out
as §4

[8] = tested on: Cp + To + Ta + Cs + Ck + Nc (algae grown on Bold media); assay: Algal efficacy testing, modified ASTM 5589, paint film (Diclosulam study); details: four weeks; for Total conc, ppm: Diclosulam:DIMTS study, concentration in paint used for SI; for % inhibition: at the total conc given
Description: as §1, §2, §5, §8
Each well that contains a tested coupon was inoculated with 400 μl of organism mixture (1×10^6 cfu/ml) making sure that the whole surface (paint film as well as the agar surrounding it) was evenly covered. […] The total area covered was evaluated at the end of each week according to percent area covered in 5% increments.
as §4

Row | SMILES | % inhibition [1] | Total conc, ppm [1] | % inhibition [2] | Total conc, ppm [2] | % inhibition [3] | Total conc, ppm [3] | % inhibition [4] | Total conc, ppm [4] | % inhibition [5] | Total conc, ppm [5] | % inhibition ([6]; Diclosulam:DIMTS study) | Total conc, ppm ([6]; Diclosulam:DIMTS study) | % inhibition ([6]; Flumetsulam:DIMTS study) | Total conc, ppm ([6]; Flumetsulam:DIMTS study) | Total conc, ppm [7] | % inhibition [7] | Total conc, ppm [8] | % inhibition [8]
1 | Cc1ccc(S(=O)(=O)C(I)I)cc1 [DIMTS, diiodomethyl-p-tolylsulfone] | 70% | 2500 ppm | 100% | 625 ppm | 100% | 625 ppm | 100% | 1250 ppm | 100% | 1250 ppm | 85% | 2500 ppm | 85% | 625 ppm | 2500 ppm | 0% | 625 ppm | 100%
2 | CCOc1nc(F)cc2nc(S(=O)(=O)Nc3c(Cl)cccc3Cl)nn12 [Diclosulam, N-(2,6-dichlorophenyl)-5-ethoxy-7-fluoro[1,2,4]triazolo[1,5-c]pyrimidine-2-sulfonamide] | – | – | – | – | – | – | – | – | – | – | 85% | 875 ppm | – | – | 3500 ppm | 0% | 437.5 ppm | 100%
3 | Cc1ccn2nc(S(=O)(=O)Nc3c(F)cccc3F)nc2n1 [Flumetsulam, N-(2,6-difluorophenyl)-5-methyl[1,2,4]triazolo[1,5-a]pyrimidine-2-sulfonamide] | 70% | 3500 ppm | 40% | 3500 ppm | 70% | 3500 ppm | 0% | 3500 ppm | 95% | 3500 ppm | – | – | 80% | 2625 ppm | – | – | – | –

Source: patent publication US8722689B2, “Synergistic combination of flumetsulam or diclosulam with diiodomethyl-P-tolylsulfone” (Dow Global Technologies LLC, priority 2010, dated 2014)
